From US11718650B2, “Immunogenic peptides and their use in immune disorders” (IMCYSE SA, priority 2006, dated 2023)
No end group written: not given here.

Columns and labels:
p21-35-loaded Wehi cells = assay: derivatisation of T cell clones after immunisation, screening for apoptosis of p21-35-loaded Wehi cells; type: in vivo, mouse
Method: Derivatisation of regulatory T cell clones. BALB/c mice were immunised by 3 footpad injections of 20 μg/ml peptide mp21-35Asn in alum at 2 weeks intervals. Ten days after the last injection, spleen CD4+ T cells were stimulated with T cell depleted splenocytes from naïve mice in the presence of peptide mp21-35Asn. After 10 days, cells were restimulated in the same conditions but with 10 U/ml mouse II-2 (Roche). After the fifth restimulation, T cells were subcloned in the presence of 10 U/ml IL-2 by limiting dilution. The subsequent specific stimulations were carried out in the presence of 20 U/ml mouse IL-2. The G121 T cell line was derived as previously described (Janssens et al. (2003) J. Immunol. 171, 4604-4612.
T cell clones were derived for phenotypic analysis from the spleen of mice injected with either mp21-35Asn in alum, mp21-35Asn in CFA/IFA (complete or incomplete Freund adjuvant), Der p 2 or saline as a control. A total of 17 clones were obtained, which expansion was fully dependent of addition of IL-2. These clones were maintained at rest for 10 days before assessing expression of CD25. Positive clones were then screened for their capacity to induce apoptosis of p21-35-loaded Wehi cells using annexin V binding as readout.

BALB/c mice [1] = assay: T cell clones from BALB/c mice immunised with Der p 1 derived peptide; type: in vivo, mouse; conditions: 20 μg subcutaneous, 3 injections
Method: Two groups of BALB/c mice were immunised by the subcutaneous route with either 20 μg of peptide with a T cell epitope sequence of the allergen Der p1 (SNYCQIYPPNANKIR [SEQ ID. NO: 5]) or a modified version thereof CGFS SNYCQIYPPNANKIR [SEQ ID. NO: 7] having at the N-terminus the sequence CGFS [SEQ ID. NO: 6].
After 3 injections, mice were sacrificed and CD4+ T cells were purified from the spleen and cloned by limiting dilution. T cell clones obtained from mice immunised with the SNYCQIYPPNANKIR [SEQ ID. […] Mice immunised with the peptide CGFS SNYCQIYPPNANKIR [SEQ ID.

BALB/c mice [2] = assay: adoptive transfer of cytolytic T cell clones in asthma elicited by nasal instillation of Der p 1; type: in vivo, mouse
Method: BALB/c mice were submitted to 2 series of 3 daily nasal instillations separated by 1 week, using 100 μg of the Der p 1 allergen. The day after the last nasal instillation, mice are sacrificed and checked for the presence of alterations characteristic of allergic asthma in the bronchoalveolar space and lung.
Two additional groups of mice are adoptively transferred with cytolytic T cell clones obtained as described in Example 11 using the Der p 1 peptide with the motif, either prior to or after the first series of nasal instillations.
BALF differential cell counts were carried out 4 days after the last series of nasal instillations (6 BALB/c per group). Cells were obtained by bronchoalveolar lavage of lungs and identified on cytospins as macrophages, neutrophils, eosinophils or lymphocytes. Mice received 2 series of 3 nasal instillations with either 100 μg Der p 1 (model) or NaCl (negative).
Broncho-alveolar lavage fluids were tested for the presence of cytokines (Table 6).

BALB/c mice [3] = assay: beta-lactoglobulin allergy mouse model; type: in vivo
Method: BALB/c mice are immunised by 2 SC injections with 20 μg of the peptide of sequence CHGC AQKKIIAEK [SEQ ID. NO: 30] in alum. This is followed 15 days later by intraperitoneal sensitisation to BLG (5 μg in alum), on 2 occasions at a fortnight interval. Alternatively, peptide administration is given 15 days after IP sensitisation to BLG.
Hypersensitivity to BLG is verified in the mouse by assessing bronchial hyperreactivity after intranasal administration of BLG. All mice are submitted to intranasal administration of 10 μg of BLG in saline 10 days after the last injections. A control group is included in which intraperitoneal sensitisation is carried out without peptide immunisation.

WEHI cells [4] = assay: apoptosis of peptide-loaded WEHI cells by cytolytic T cell clones, with inhibitors; type: cell-based, mouse; conditions: two CFSE-labelled populations, G121 Treg, 18 hours
Method: For inhibition of GZ-B activity, Z-AAD-CMK (Calbiochem) or 3,4-dichloroiso-coumarin (DCIC) (SIGMA) were added at indicated concentrations during all the co-culture period.
Experiments were carried out with p21-35-loaded CD11c dendritic (FIG. 13b: left panel) or WEHI cells (FIG. 13b: right panel). Upon incubation with R3TB7 virtually all dendritic cells (DC) or Wehi cells were induced into apoptosis as measured by caspase 3 activation.
Apoptosis can be induced by either the Fas-FasL pathway or by secretion of cytotoxic granules containing granzymes. Attempts were made to inhibit each of these pathways. Addition of increasing concentrations of an antibody towards FasL, or of granzyme B inhibitors, to a cell culture containing p21-35 loaded WEHI cells and a cytolytic T cell clone, increased the number of surviving WEHI cells in a dose-dependent manner (FIG. 13c). In a number of experiments it was shown that the anti-FasL antibody restored up to 80% of WEHI cell survival.
To further ascertain that APC lysis required direct contact with cytolytic T cells through MHC class II presentation of p21-35, an experiment was carried out in which two identical populations of Wehi cells were loaded with either p21-35 or with an irrelevant peptide (p71-85). These two populations could be distinguished by differential CFSE labelling. It can be seen from FIG. 13e that, while WEHI cells presenting p21-35 were fully lysed, only 40% of p71-85-loaded cells were affected.

CD4+ effector T cells = assay: activation of CD4+ effector T cells from patients sensitised to Der p 2; type: cell-based, human
Excerpt: Chemokines involved in attracting T lymphocytes to the lung are not precisely identified. The cytolytic Tregs described here express CD103 but not CCR7, which should confer them with the capacity to migrate to inflamed tissues. Other chemokines such as CCR5 and CCR3 were not detected. […] In an experimental model of asthma, including peripheral sensitisation and allergen inhalation, it was shown that Tregs have the capacity to prevent and suppress both inflammatory infiltration and airway hyperreactivity, which are the hallmarks of bronchial asthma. An LPS-free recombinant form of a main allergen, Der p 2, was used, which is involved in a large proportion of patients suffering from allergic asthma.

[5] = tested on: Treg clone specific for p21-35; assay: oxidative metabolism (ROS, carboxy-H2DCFDA) of cognate Treg cells; type: cell-based, mouse; conditions: 20 μg/ml, 90 minutes
Method: A Treg clone (10^5 cells) specific for p21-35 was incubated for 90 minutes with PBS (FIG. 5, panel A), peptide p21-35 (20 μg/ml in 200 μl PBS; FIG. 5, panel B) or tert-butyl hydroperoxide (100 μM in PBS; FIG. 5, panel C), which is an inducer of Reactive Oxygen Species (ROS). Cells were then labelled for 30 minutes with carboxy-H2DCFDA (12 μM), a fluorogenic marker for ROS in live cells, and then analysed by flow cytometry.

WEHI cells [6] = assay: T cell clones from mice immunised with gp75-targeted Der p 1 peptides, lysis of WEHI cells; type: in vivo, mouse; conditions: 20 μg SC on aluminium hydroxide, three injections
Method: Groups of BALB/c mice were immunised subcutaneously (20 μg) with the experimental peptide [SEQ ID. NO: 10] or the control peptide [SEQ ID, NO: 11] adsorbed onto aluminium hydroxide. Three injections were performed at 2-week intervals. Ten days after the last immunisation, mice were sacrificed and CD4+ T cells prepared from the spleen using magnetic beads, CD4+ T cells (2×10^6 cells) were then stimulated in vitro by the Der p 1 T cell epitope (20 μg) presented by adherent spleen cells serving as antigen-presenting cells.
Ten days after stimulation the number of specific T cell lines obtained in each group was calculated by limiting dilution analysis. Each cell line was evaluated for its capacity to lyse WEHI cells, a B cell line selected for its efficacy in antigen-presentation by MHC class-II determinants, as described in Example 6. Only cells obtained from animals immunised with the peptide containing the glutaredoxin consensus sequence had acquired the capacity to lyse WEHI cells, and lysis occurs only in the presence of the cognate Der p 1 T cell epitope.

[7] = tested on: regulatory T cell clones with cytolytic activity; assay: activation of cytolytic regulatory T cell clones by peptide-loaded APC; type: cell-based; conditions: versus C-x-x-S counterpart
Method: Antigen-presenting cells were loaded with p21-35 in its native configuration [SEQ ID. NO: 2] or p21-35 in which serine in position 24 is substituted by cysteine […] [SEQ ID. NO: 29]. This substitution creates a redox moiety of the type C-x-x-C.
Several regulatory T cell clones with cytolytic activity were incubated with APC. […] The granzymes are two of the key players in induction of apoptosis of target cells.

G221N = assay: peptide processing assay with effector T cell clone G221N; type: cell-based, mouse; conditions: NaN3/deoxyglucose, colchicine, chloroquine
[8] = prior to or after sensitisation

QYIKANSKFIGITELGGCHGSEPCNIHRGKPF (not fully specified (residues 18, 24); cysteine pairing not given here) [mp21-35Asn]
cytolytic clones among CD4+CD25+ T cell clones (p21-35-loaded Wehi cells; immunised in CFA/IFA): 0/5
cytolytic clones among CD4+CD25+ T cell clones (p21-35-loaded Wehi cells; immunised in alum): 8/8

CGFSSNYCQIYPPNANKIR (glutaredoxin-like consensus sequence and dominant T cell epitope of the Der p 1 allergen) [SEQ ID. NO: 7]
type of T cell clones obtained from immunised mice (BALB/c mice [1]): produced T cell clones with cytolytic properties
BAL IFN-gamma (BALB/c mice [2]; Prevention): 0 pg/mL
BAL IL-2 (BALB/c mice [2]; Prevention): 0.7 pg/mL
BAL IL-4 (BALB/c mice [2]; Prevention): 0 pg/mL
BAL IL-5 (BALB/c mice [2]; Prevention): 0.3 pg/mL
BAL IL-10 (BALB/c mice [2]; Prevention): 10 pg/mL
BAL IL-13 (BALB/c mice [2]; Prevention): 0.2 pg/mL
BAL TGF-beta (BALB/c mice [2]; Prevention): 5.8 pg/mL
BAL TNF-alpha (BALB/c mice [2]; Prevention): 0.7 pg/mL
BAL IFN-gamma (BALB/c mice [2]; Suppression): 0 pg/mL
BAL IL-2 (BALB/c mice [2]; Suppression): 0.8 pg/mL
BAL IL-4 (BALB/c mice [2]; Suppression): 0.7 pg/mL
BAL IL-5 (BALB/c mice [2]; Suppression): 0.5 pg/mL
BAL IL-10 (BALB/c mice [2]; Suppression): 2 pg/mL
BAL IL-13 (BALB/c mice [2]; Suppression): 0.3 pg/mL
BAL TGF-beta (BALB/c mice [2]; Suppression): 0 pg/mL
BAL TNF-alpha (BALB/c mice [2]; Suppression): 0 pg/mL

CHGC AQKKIIAEK (CHGCAQKKIIAEK; thioredox motif sequence CHGC linked to T cell epitope of Bovine beta-lactoglobulin (BLG)) [SEQ ID. NO: 30]
capacity to react to BLG nasal instillation (BALB/c mice [3]; 20 μg in alum, 2 SC injections prior to or after sensitisation): completely lost the capacity to react to BLG nasal instillation
eosinophils in bronchoalveolar lavage fluid (BALB/c mice [3]; [8]): lack of eosinophils
hyperreactivity upon challenge with methacholine (BALB/c mice [3]; [8]): absence of hyperreactivity

CHGSEPCIIHRGKPF (the p21-35 peptide of Der p 2 allergen) [amino acids 21 to 35 of Der p 2]
lysis of WEHI cells loaded with the peptide (WEHI cells [4]): fully lysed
activation of patients' CD4+ effector T cells (CD4+ effector T cells): activated CD4+ effector T cells from patients sensitised to Der p 2
fluorescence intensity due to ROS increase [5]: doubling

CGFS SNYCQIYPPNANKIR SGGSGGSGG IITIAVVAALLLVAAIFGVASCLIRSRSTKNEANQPLLTDS [SEQ ID. NO: 10]
T cell clones with Treg (cytotoxic) properties derived from immunised mice (WEHI cells [6]): All T cell clones obtained after treatment with the construct and re-stimulated in vitro were cytotoxic

SNYCQIYPPNANKIR (dominant T cell epitope of Der p 1 allergen) [SEQ ID. NO: 5, reference compound]
type of T cell clones obtained from immunised mice (BALB/c mice [1]): produced effector CD4+ T cells

SNYCQIYPPNANKIR SGGSGGSGG IITIAVVAALLLVAAIFGVASCLIRSRSTKNEANQPLLTDS [SEQ ID. NO: 11, reference compound]
T cell clones with Treg (cytotoxic) properties derived from immunised mice (WEHI cells [6]): not from mice that received the control peptide

CHGCEPCIIHRGKPF (p21-35 peptide of Der p2 allergen mutated at residue 24) [SEQ ID. NO: 29]
T cell activation assessed by cytokine production [7]: higher degree of T cell activation
transcription of mRNA for FasL and granzymes [7]: more than its C-x-x-S counterparts

p71-85: alternative major T cell epitope (p71-85) located on Der p 2 (NACHYMKCPLVKGQQ; UniProt P49278 88-102, looked up, fragment) [reference compound]
lysis of WEHI cells loaded with the peptide (WEHI cells [4]): 40%
induction of cytolytic Tregs towards the epitope (p21-35-loaded Wehi cells; mouse, in vivo): not possible to induce cytolytic Tregs

B1: Der p 2: Recombinant full-length Der p 2 produced in Pichia pastoris (protein, UniProt P49278 1-146, looked up)
chain: MMYKILCLSLLVAAVARDQVDVKDCANHEIKKVLVPGCHGSEPCIIHRGKPFQLEAVFEANQNTKTAKIEIKASIDGLEVDVPGIDPNACHYMKCPLVKGQQYDIKYTWNVPKIAPKSENVVVTVKVMGDDGVLACAIATHAKIRD
modifications: full-length recombinant, Pichia pastoris
notes: Recombinant full-length Der p 2 produced in Pichia pastoris
requirement for internalisation, fusion with and acidification of late endosomes (G221N): required internalisation into antigen-presenting cells
cytolytic clones among CD4+CD25+ T cell clones (p21-35-loaded Wehi cells; mice immunised with Der p 2): 0/4
